Experimental data reported in patent US20030092684A1, “Compositions and methods for treating hemorrhagic virus infections and other disorders” (priority 1999, published 2003).

Legend:
[1] = system: TNF-α and IL-1β; experiment: Serum TNF and IL-1 in Dengue infected mice (Example 4); assay type: in vivo, BALB/c mice; conditions: for level of the cytokines in the serum versus control A2 group: 20 mg/kg twice per day from day -3 until day 8
[2] = system: Mononuclear human cells; experiment: In vitro activation of mononuclear human cells by antibiotics: IL-1RA and sTNFrI production; assay type: cell-based; conditions: 0.06 mg/ml, activation for 2 hours
[3] = system: Dengue virus type 2; experiment: Dengue virus infection treated with tetracycline compounds (Example 4): mortality; assay type: in vivo, BALB/c mice; conditions: for % (survival): 20 mice, 20 mg/kg
[4] = system: IL-1RA and sTNFrl; experiment: IL-1RA and sTNFrl in human donor serum after oral antibiotic stimulation; assay type: in vivo
[5] = day 0, 20 mg/kg intramuscularly twice per day from day -3 until day 8
[6] = day 1, 20 mg/kg intramuscularly twice per day from day -3 until day 8
[7] = day 3, 20 mg/kg intramuscularly twice per day from day -3 until day 8
[8] = day 5, 20 mg/kg intramuscularly twice per day from day -3 until day 8
[9] = day 6, 20 mg/kg intramuscularly twice per day from day -3 until day 8
[10] = day 7, 20 mg/kg intramuscularly twice per day from day -3 until day 8
[11] = day 8, 20 mg/kg intramuscularly twice per day from day -3 until day 8
[12] = day 12, 20 mg/kg intramuscularly twice per day from day -3 until day 8
[13] = day -1, 20 mg/kg intramuscularly twice per day from day -3 until day 8
[14] = 20 mg/kg intramuscularly twice per day from day -3 until day 8
[15] = 20 mg/kg intramuscularly twice per day from day -3 until day 8, listed as terramycine
[16] = day 0, 20 mg/kg orally twice per day from day -3 until day 8
[17] = day 1, 20 mg/kg orally twice per day from day -3 until day 8
[18] = day 3, 20 mg/kg orally twice per day from day -3 until day 8
[19] = day 5, 20 mg/kg orally twice per day from day -3 until day 8
[20] = day 6, 20 mg/kg orally twice per day from day -3 until day 8
[21] = day 7, 20 mg/kg orally twice per day from day -3 until day 8
[22] = day 8, 20 mg/kg orally twice per day from day -3 until day 8
[23] = day 12, 20 mg/kg orally twice per day from day -3 until day 8
[24] = day -1, 20 mg/kg orally twice per day from day -3 until day 8
[25] = 20 mg/kg orally twice per day from day -3 until day 8
[26] = 20 mg/kg orally twice per day from day -3 until day 8, listed as vibromycine
[27] = 150 mg orally twice a day, blood taken on the second and third day after beginning
[28] = after stimulation, 2 persons, on the 24th hour

With `CN(C)[C@@H]1C(O)=C(C(N)=O)C(=O)[C@@]2(O)C(O)=C3C(=O)c4c(O)cccc4[C@@](C)(O)[C@H]3[C@H](O)[C@@H]12` [Terramycine] the “level of the cytokines in the serum versus control A2 group” value [1] was “statistically lower”, the “increase of the concentration of IL-1” value ([1]; by day 3 of the disease, stayed until day 7, 20 mg/kg intramuscularly twice per day) was 16 fold and the “increase of the concentration of TNF” value ([1]; by day 6 of the disease, 20 mg/kg intramuscularly twice per day) was 2 fold. For the same molecule, the IL-1 [1, 5] was 7.0 pg/mL, the TNF [1, 5] was 17.0 pg/mL and the IL-1 [1, 6] was 21.8 pg/mL. It also gave a TNF [1, 6] of 15.2 pg/mL, an IL-1 [1, 7] of 112.0 pg/mL and a TNF [1, 7] of 25.6 pg/mL. For the same molecule, the IL-1 [1, 8] was 84.0 pg/mL, the TNF [1, 8] was 26.0 pg/mL and the IL-1 [1, 9] was 80.0 pg/mL. The TNF [1, 9] was 36.2 pg/mL, the IL-1 [1, 10] was 76.0 pg/mL and the TNF [1, 10] was 28.0 pg/mL. For the same molecule, the IL-1 [1, 11] was 42.0 pg/mL, the TNF [1, 11] was 20.0 pg/mL and the IL-1 [1, 12] was 16.0 pg/mL. The TNF [1, 12] was 18.0 pg/mL, the IL-1 [1, 13] was 7.2 pg/mL and the TNF [1, 13] was 18.8 pg/mL. The IL-1RA ([2]; 0 hours) was 28 + 1.6 pg/ml, the sTNFrI ([2]; 0 hours) was 18 + 1.4 pg/ml and the IL-1RA ([2]; 3 hours) was 93 + 6.2 pg/ml. For the same molecule, the sTNFrI ([2]; 3 hours) was 313 + 10.4 pg/ml, the IL-1RA ([2]; 6 hours) was 220 + 9.4 pg/ml and the sTNFrI ([2]; 6 hours) was 224 + 9.2 pg/ml. For the same molecule, the IL-1RA ([2]; 24 hours) was 185 + 8.6 pg/ml, the sTNFrI ([2]; 24 hours) was 264 + 9.6 pg/ml and the m.t.d. [3, 14] was “m.t.d. = 6.53 days”. For the same molecule, the m.t.d. [3, 15] was 6.53 days, the “% (survival)” value [3, 14] was “% (survival) 15” and the “% (survival)” value [3, 15] was 15%. The Survival/total amount [3, 5] was 20/20, the Survival/total amount [3, 6] was 20/20 and the Survival/total amount [3, 7] was 20/20. For the same molecule, the Survival/total amount [3, 8] was 19/20, the Survival/total amount [3, 9] was 11/20 and the Survival/total amount [3, 10] was 6/20. The Survival/total amount [3, 11] was 3/20, the Survival/total amount [3, 12] was 3/20 and the Survival/total amount [3, 13] was 20/20.
With `CC1c2cccc(O)c2C(=O)C2=C(O)C3(O)C(=O)C(C(N)=O)=C(O)C(N(C)C)C3C(O)C21` (stereo not shown) [Vybromycine] the “increase of the concentration of TNF” value ([1]; 20 mg/kg orally twice per day) was 3 fold, the “level of the cytokines in the serum versus control A2 group” value [1] was “statistically lower” and the “increase of the concentration of IL-1” value ([1]; by day 6 of the infection, 20 mg/kg orally twice per day) was 12 fold. The IL-1 [1, 16] was 7.0 pg/mL, the TNF [1, 16] was 18.8 pg/mL and the IL-1 [1, 17] was 11.6 pg/mL. For the same molecule, the TNF [1, 17] was 12.6 pg/mL, the IL-1 [1, 18] was 60.0 pg/mL and the TNF [1, 18] was 10.8 pg/mL. The IL-1 [1, 19] was 62.0 pg/mL, the TNF [1, 19] was 16.0 pg/mL and the IL-1 [1, 20] was 84.4 pg/mL. For the same molecule, the TNF [1, 20] was 34.0 pg/mL, the IL-1 [1, 21] was 64.0 pg/mL and the TNF [1, 21] was 30.6 pg/mL. The IL-1 [1, 22] was 30.0 pg/mL, the TNF [1, 22] was 26.0 pg/mL and the IL-1 [1, 23] was 17.8 pg/mL. For the same molecule, the TNF [1, 23] was 22.2 pg/mL, the IL-1 [1, 24] was 7.0 pg/mL and the TNF [1, 24] was 20.4 pg/mL. For the same molecule, the m.t.d. [3, 25] was “m.t.d. = 6.7 days”, the m.t.d. [3, 26] was 6.7 days and the “% (survival)” value [3, 25] was “% (survival) 20”. For the same molecule, the “% (survival)” value [3, 26] was 20%, the Survival/total amount [3, 16] was 20/20 and the Survival/total amount [3, 17] was 20/20. The Survival/total amount [3, 18] was 20/20, the Survival/total amount [3, 19] was 19/20 and the Survival/total amount [3, 20] was 15/20. For the same molecule, the Survival/total amount [3, 21] was 5/20, the Survival/total amount [3, 22] was 4/20 and the Survival/total amount [3, 23] was 4/20. For the same molecule, the Survival/total amount [3, 24] was 20/20, the “concentration in the human serum of IL-1RA” value [4, 27] was 184 pg/mL and the “concentration in the human serum of sTNFrl” value [4, 27] was 950 pg/mL. For the same molecule, the “IL-1RA in the donor serum” value [4, 28] was 126.8 ± 6.8 pg/mL, the “sTNFrl in the donor serum” value [4, 28] was 970 ± 28.6 pg/mL and the “IL-1RA in the donor serum” value ([4]; before the stimulation) was 20 ± 2.2 pg/mL. The “sTNFrl in the donor serum” value ([4]; before the stimulation) was 22 ± 3.4 pg/mL.
